Experimental data as given in article PMC5316407, “In vivo imaging of systemic transport and elimination of xenobiotics and endogenous molecules in mice” (Archives of Toxicology, 2016).
Several values for one entry are separate records, joined by “and”; a condition that tells them apart may be missing. Equal entries are not always repeated. Entries after “also recorded” stand apart in the source; their conditions may differ.

Experiments:
Assay type in all cases: in vivo, mouse
[1] = Intravital two-photon imaging of intestinal transport (duodenum, capillaries to lacteal)
Protocol: (§1) In vivo recordings were acquired using a custom modified inverted LSM MP7 (Zeiss, Jena, Germany) provided with a two-photon Chameleon Ultra II laser with a tuning range from 680 to 1080 nm and a maximum power of approximately 3.5 W at 800 nm. […] Images were acquired with an LD C-Apochromat 40×/1.1 water immersion objective. The temperature of the specimen was controlled with a matt coated incubation chamber (Solent Scientific, Segensworth, UK).
For in vivo imaging, 6- to 10-week-old male mice were initially anaesthetized with an intraperitoneal injection of ketamine (64 mg/kg), xylazine (7.2 mg/kg), acepromazine (1.7 mg/kg) and buprenorphine (0.08 mg/kg). […] For liver preparation, the abdominal skin was removed and a small midline incision below the sternum was made with surgical scissors. Subsequently, the falciform ligament was cautiously cut in order to dissociate the liver. […] The cover slip was put in a custom-made image platform from Plexiglas and fit into the stage of the microscope. The exposed liver was then covered with saline-soaked gauze. The temperature control of the incubation chamber was set at 36 °C. The quality of mouse preparation was verified by checking the breathing rate of the mouse and by the regular blood flow in the observed region. For the preparation of the kidney, the mouse was placed on its right side and a small incision made in the left flank region. The convex side of the left kidney was exposed via gentle pressure on the abdominal wall. In order to avoid dryness, the exposed kidney was covered with saline-moistened gauze during imaging. For intestine imaging, an incision was made on the right side of the abdominal wall. The intestine was gently pulled out using a moistened cotton-tipped applicator. To reduce peristalsis, the intestine was incubated in a 1% atropine sulfate bath for 10 min. […]
Recorded videos were quantified with the Zen software (Zeiss). Fluorescence intensity was quantified in defined regions of interest. […]

[2] = Intravital two-photon imaging of glomerular filtration and tubular transport in the kidney; details: for Tmax: individual renal tubule; for Half-life: kidney
Protocol: as §1
(§2) For in vivo imaging, 6- to 10-week-old male mice were initially anaesthetized with an intraperitoneal injection of ketamine (64 mg/kg), xylazine (7.2 mg/kg), acepromazine (1.7 mg/kg) and buprenorphine (0.08 mg/kg). […] For liver preparation, the abdominal skin was removed and a small midline incision below the sternum was made with surgical scissors. Subsequently, the falciform ligament was cautiously cut in order to dissociate the liver. […] The cover slip was put in a custom-made image platform from Plexiglas and fit into the stage of the microscope. The exposed liver was then covered with saline-soaked gauze. The temperature control of the incubation chamber was set at 36 °C. The quality of mouse preparation was verified by checking the breathing rate of the mouse and by the regular blood flow in the observed region. For the preparation of the kidney, the mouse was placed on its right side and a small incision made in the left flank region. The convex side of the left kidney was exposed via gentle pressure on the abdominal wall. In order to avoid dryness, the exposed kidney was covered with saline-moistened gauze during imaging. For intestine imaging, an incision was made on the right side of the abdominal wall. The intestine was gently pulled out using a moistened cotton-tipped applicator. To reduce peristalsis, the intestine was incubated in a 1% atropine sulfate bath for 10 min. Subsequently, the intestine was placed in a glass bottom microwell dishes (MatTek corporation, MA, USA) containing 0.5% atropine sulfate bath during the entire recording period. In case of recordings exceeding 1 h, the mice were kept on maintenance anesthesia via a respiratory mask using an evaporator (IAS3801, FMI GmbH, Seeheim-Jugenheim, Germany) with 1–2% isoflurane and a subcutaneous injection of 0.5 ml saline was given.
(§3) Fluorescent markers or fluorescently labeled antibodies were injected via the tail vein before surgery or during recording via lateral tail vein catheters (SAI-infusion, IL, USA). […] All injected antibodies including anti-mouse CD11b, anti-mouse F4/80, anti-mouse NK1.1 and anti-mouse Ly6G (eBioscience, CA, USA) were phycoerythrin conjugated and administered in 100 µl PBS.
(§4) Recorded videos were quantified with the Zen software (Zeiss). Fluorescence intensity was quantified in defined regions of interest.
(§5) Pharmacokinetic analyses were performed with the MoBi® Toolbox for MATLAB (version 6.0.3; Bayer Technology Services GmbH, Leverkusen, Germany). PK-Sim® and MoBi® are freely available for non-commercial academic use.

[3] = Intravital two-photon imaging of hepatic transport after tail vein injection; details: for Half-life: liver
Protocol: as §1, §2, §3, §4, §5

For `CC(CCC(=O)NC(CCCCNC(=S)Nc1ccc(-c2c3ccc(=O)cc-3oc3cc(O)ccc23)c(C(=O)O)c1)C(=O)O)C1CCC2C3C(O)CC4CC(O)CCC4(C)C3CC(O)C12C` (stereo not shown) [CLF, cholyl-lysyl-fluorescein], the “Transfer from intestinal blood capillaries into lymphatic vessels (lacteals), blood-lacteal barrier” value ([1]; after intravenous injection) was “found in traces in the lymphatic vessels; also recorded: virtually impermeable”, the “Transport from intestinal capillaries into intestinal crypt cells and secretion into the intestinal lumen” value ([1]; after intravenous injection) was “No transport” and the Half-life ([1]; intestine, blood vessels) was 1.45 min. It also gave a Tmax ([2]; Fig. 7, Tubule: 1) of 0.38 min, a Tmax ([2]; Fig. 7, Tubule: 2) of 0.38 min and a Tmax ([2]; Fig. 7, Tubule: 3) of 0.40 min. The Tmax ([2]; Fig. 7, Tubule: 4) was 0.75 min, the Tmax ([2]; Fig. 7, Tubule: 5) was 0.45 min and the Tmax ([2]; Fig. 7, Tubule: 6) was 0.35 min. It also gave a Tmax ([2]; Fig. 7, Tubule: 7) of 3.22 min, a Tmax ([2]; Fig. 7, Tubule: 8) of 2.82 min and a Tmax ([2]; Fig. 7, Tubule: 9) of 3.34 min. It also gave a Tmax ([2]; Fig. 7, Tubule: 10) of 3.34 min, a Tmax ([2]; Fig. 7, Tubule: 11) of 0.40 min and a Tmax ([2]; Fig. 7, Tubule: 12) of 0.50 min. For the same compound, the Tmax ([2]; Fig. 7, Tubule: 13) was 3.24 min, the Tmax ([2]; Fig. 7, Tubule: 14) was 0.37 min and the Tmax ([2]; Fig. 7, Tubule: 15) was 3.19 min. For the same compound, the Half-life ([2]; Bowman's space) was 2.19 min, the Half-life ([2]; glomerular capillaries) was 2.3 min and 2.33 min and the Half-life ([2]; proximal tubule) was 4.88 min. The “Time to maximum (T max) fluorescence, distal tubules” value ([2]; tubular lumina, range over imaged tubules) was 2.82 to 3.34 min, the “Time to maximum homogenous signal in the cytosol of the hepatocytes” value ([3]; after intravenous injection of 2.5 mg/kg) was roughly 5 min and the “Enrichment in the LSEC/space of Dissé” value ([3]; after tail vein injection) was “transient enrichment”. The Half-life ([3]; LSEC/Dissé space) was 13.46 min, the Half-life ([3]; hepatocytes, nd^a = not detectable due to transportation in vesicles) was 34.17 min and the Half-life ([3]; sinusoids, fluorescence intensity after tail vein injection (CLF 2.5 mg/kg, dextran 30 mg/kg)) was 1.9 min and 1.89 min. The “Appearance in the liver sinusoids after tail vein injection” value ([3]; time after tail vein injection) was “approximately 15 s”.
